Experiments:
Format in all cases: in vivo
[1] = system: barnyardgrass (Echinochloa crus-galli L.): ECHCC; assay: Test Example 1: pre-emergence herbicidal activity (growth controlling degree); conditions: 20th to 21st day after application
Description: (§1) Upland field soil was put into a 1/170,000 ha pot, and seeds of various plants [1. barnyardgrass (Echinochloa crus-galli L.): ECHCC, 2. crabgrass (Digitaria sanguinalis L.): DIGSA, 3. green foxtail (Setaria viridis L.): SETVI, 4. redroot pigweed (Amaranthus retroflexus L.): AMARE, 5. prickly sida (Sida spinosa L.): SIDSP, 6. velvetleaf (Abutilon theophrasti): ABUTH, 7. common cocklebur (Xanthium strumarium L.): XANST, 8. rice (Oryza sativa L.): ORYSA, 9. wheat (Triticum aestivum L.): TRZAX, 10. corn (Zea mays L.): ZEAMX, 11. soybean (Glycine max Merr.): GLXMA] were sown. Then, one day after the sowing, a wettable powder or emulsifiable concentrate having the compound of the present invention formulated in accordance with a usual formulation method, was weighed so that the active ingredient would be a predetermined amount, and diluted with water in an amount of 500 L/ha. The herbicide adjusted was applied by a small size sprayer for pre-emergence treatment. On the 20th to 21st day after the application of the herbicide, the growth of the respective plants was visually observed, and the herbicidal effects were evaluated by growth controlling degrees (%) ranging from 0 (equivalent to the untreated control) to 100 (complete kill), whereby the results shown in Table 11, were obtained. Compound Nos. in Table 11 correspond to Compound Nos. in Table 1 to 7 given hereinbefore.

[2] = system: common cocklebur (Xanthium strumarium L.): XANST; assay: as above; conditions: 20th to 21st day after application
Description: as §1

[3] = system: corn (Zea mays L.): ZEAMX; assay: as above; conditions: 20th to 21st day after application
Description: as §1

[4] = system: crabgrass (Digitaria sanguinalis L.): DIGSA; assay: as above; conditions: 20th to 21st day after application
Description: as §1

[5] = system: green foxtail (Setaria viridis L.): SETVI; assay: as above; conditions: 20th to 21st day after application
Description: as §1

[6] = system: prickly sida (Sida spinosa L.): SIDSP; assay: as above; conditions: 20th to 21st day after application
Description: as §1

[7] = system: redroot pigweed (Amaranthus retroflexus L.): AMARE; assay: as above; conditions: 20th to 21st day after application
Description: as §1

[8] = system: rice (Oryza sativa L.): ORYSA; assay: as above; conditions: 20th to 21st day after application
Description: as §1

[9] = system: soybean (Glycine max Merr.): GLXMA; assay: as above; conditions: 20th to 21st day after application
Description: as §1

[10] = system: velvetleaf (Abutilon theophrasti): ABUTH; assay: as above; conditions: 20th to 21st day after application
Description: as §1

[11] = system: barnyardgrass (Echinochloa crus-galli L.), ECHCG; assay: Test Example 2: post-emergence (foliage treatment) herbicidal activity (growth controlling degree); conditions: 1.8-2.4 leaf stage; for pest or weed control at 63 g/ha: 63 g a.i./ha
Description: (§2) Upland field soil was put into a 1/170,000 ha pot, and seeds of various plants were sown. Then, when the plants reached predetermined leaf stages [I. barnyardgrass (Echinochloa crus-galli L.), ECHCG: 1.8-2.4 leaf stage, 2. crabgrass (Digitaria sanguinalis L.), DIGSA: 1.5-2.2 leaf stage, 3. green foxtail (Setaria viridis L.), SETVI: 1.7-2.5 leaf stage, 4. redroot pigweed (Amaranthus retroflexus L.), AMARE: 0.1-0.3 leaf stage, 5. prickly sida (Sida spinosa L.), SIDSP: 0.3-0.5 leaf stage, 6. velvetleaf (Abutilon theophrasti), ABUTH: 0.3-0.4 leaf stage, 7. common cocklebur (Xanthium strumarium L.), XANST: 0.2-0.6 leaf stage, 8. rice (Oryza sativa L.), ORYSA: 1.6-2.2 leaf stage, 9. wheat (Triticum aestivum L.), TRZAX: 2.8 leaf stage, 10. corn (Zea mays L.), ZEAMX: 2.2-2.5 leaf stage, 11. soybean (Glycine max Merr.), GLXMA: 0.2-0.3 leaf stage], a wettable powder or emulsifiable concentrate having the compound of the present invention formulated in accordance with a usual formulation method, was weighed so that the active ingredient would be a predetermined amount, and diluted with water in an amount of 500 L/ha. To the diluted solution, 0.1%(v/v) of an agricultural spreader was added. The herbicide adjusted was applied by a small size sprayer for foliage treatment. On the […] day after the application of the herbicide, the growth of the respective plants was visually observed, and the herbicidal effects were evaluated by growth controlling degrees (%) ranging from 0 (equivalent to the untreated control) to 100 (complete kill), whereby the results shown in Table 12, were obtained. Compound Nos. in Table 12 correspond to Compound Nos. in Table 1 to 7 given hereinbefore.

[12] = system: common cocklebur (Xanthium strumarium L.), XANST; assay: as above; conditions: 0.2-0.6 leaf stage; for pest or weed control at 63 g/ha: 63 g a.i./ha
Description: as §2

[13] = system: corn (Zea mays L.), ZEAMX; assay: as above; conditions: 2.2-2.5 leaf stage; for plant injury at 63 g/ha: 63 g a.i./ha
Description: as §2

[14] = system: crabgrass (Digitaria sanguinalis L.), DIGSA; assay: as above; conditions: 1.5-2.2 leaf stage; for pest or weed control at 63 g/ha: 63 g a.i./ha
Description: as §2

[15] = system: green foxtail (Setaria viridis L.), SETVI; assay: as above; conditions: 1.7-2.5 leaf stage; for pest or weed control at 63 g/ha: 63 g a.i./ha
Description: as §2

[16] = system: prickly sida (Sida spinosa L.), SIDSP; assay: as above; conditions: 0.3-0.5 leaf stage; for pest or weed control at 63 g/ha: 63 g a.i./ha
Description: as §2

[17] = system: redroot pigweed (Amaranthus retroflexus L.), AMARE; assay: as above; conditions: 0.1-0.3 leaf stage
Description: as §2

[18] = system: rice (Oryza sativa L.), ORYSA; assay: as above; conditions: 1.6-2.2 leaf stage; for plant injury at 63 g/ha: 63 g a.i./ha
Description: as §2

[19] = system: soybean (Glycine max Merr.), GLXMA; assay: as above; conditions: 0.2-0.3 leaf stage; for pest or weed control at 63 g/ha: 63 g a.i./ha
Description: as §2

[20] = system: velvetleaf (Abutilon theophrasti), ABUTH; assay: as above; conditions: 0.3-0.4 leaf stage; for pest or weed control at 63 g/ha: 63 g a.i./ha
Description: as §2

[21] = Digitaria sanguinalis, 504 h, read-out: growth controlling degree, DIGSP

Row | Compound | pest or weed control at 63 g/ha ([11]; Echinochloa crus-galli, 504 h) | pest or weed control at 63 g/ha ([12]; Xanthium strumarium, 504 h) | plant injury at 63 g/ha ([13]; Zea mays, 504 h) | pest or weed control at 63 g/ha [14, 21] | pest or weed control at 63 g/ha ([15]; Setaria viridis, 504 h) | pest or weed control at 63 g/ha ([16]; Sida spinosa, 504 h) | growth controlling degree, AMARE ([17]; 63 g a.i./ha) | plant injury at 63 g/ha ([18]; Oryza sativa, 504 h) | pest or weed control at 63 g/ha ([19]; Glycine max, 504 h) | pest or weed control at 63 g/ha ([20]; Abutilon theophrasti, 504 h) | growth controlling degree, ECHCG ([1]; 250 g a.i./ha) | growth controlling degree, XANST ([2]; 250 g a.i./ha) | growth controlling degree, ZEAMX ([3]; 250 g a.i./ha) | growth controlling degree, DIGSP ([4]; 250 g a.i./ha) | growth controlling degree, SETVI ([5]; 250 g a.i./ha) | growth controlling degree, SIDSP ([6]; 250 g a.i./ha) | growth controlling degree, AMARE ([7]; 250 g a.i./ha) | growth controlling degree, ORYSA ([8]; 250 g a.i./ha) | growth controlling degree, GLXMA ([9]; 250 g a.i./ha) | growth controlling degree, ABUTH ([10]; 250 g a.i./ha) | further results
1 | Cn1nc(-c2c(F)cc(Cl)c3c2CCCO3)c(Cl)c1OC(F)F [Compound 1-33, 4-chloro-3-(8-chloro-6-fluoro-3,4-dihydro-2H-1-benzopyran-5-yl)-5-(difluoromethoxy)-1-methyl-1H-pyrazole] | 100% | 100% | 100% | 100% | 100% | 100% | 100% | 98% | 100% | 100% |  |  |  |  |  |  |  |  |  |  | growth controlling degree, ECHCG ([1]; 125 g a.i./ha): 100%; growth controlling degree, XANST ([2]; 125 g a.i./ha): 70%; growth controlling degree, ZEAMX ([3]; 125 g a.i./ha): 100%; growth controlling degree, DIGSP ([4]; 125 g a.i./ha): 100%; growth controlling degree, SETVI ([5]; 125 g a.i./ha): 100%; growth controlling degree, SIDSP ([6]; 125 g a.i./ha): 100%; growth controlling degree, AMARE ([7]; 125 g a.i./ha): 100%; growth controlling degree, ORYSA ([8]; 125 g a.i./ha): 70%; growth controlling degree, GLXMA ([9]; 125 g a.i./ha): 40%; growth controlling degree, ABUTH ([10]; 125 g a.i./ha): 100%
2 | CC1CCc2c(c(Cl)cc(F)c2-c2nn(C)c(OC(F)F)c2Cl)O1 (centres unmarked) [Compound 1-39] |  |  |  |  |  |  |  |  |  |  | 100% | 100% | 70% | 100% | 100% | 100% | 100% | 50% | 30% | 100% | pest or weed control at 31 g/ha ([11]; Echinochloa crus-galli, 504 h, 31 g a.i./ha): 100%; pest or weed control at 31 g/ha ([12]; Xanthium strumarium, 504 h, 31 g a.i./ha): 100%; plant injury at 31 g/ha ([13]; Zea mays, 504 h, 31 g a.i./ha): 98%; pest or weed control at 31 g/ha ([14]; Digitaria sanguinalis, 504 h, 31 g a.i./ha, read-out: growth controlling degree, DIGSP): 100%; pest or weed control at 31 g/ha ([15]; Setaria viridis, 504 h, 31 g a.i./ha): 100%; pest or weed control at 31 g/ha ([16]; Sida spinosa, 504 h, 31 g a.i./ha): 100%; growth controlling degree, AMARE ([17]; 31 g a.i./ha): 100%; plant injury at 31 g/ha ([18]; Oryza sativa, 504 h, 31 g a.i./ha): 98%; pest or weed control at 31 g/ha ([19]; Glycine max, 504 h, 31 g a.i./ha): 100%; pest or weed control at 31 g/ha ([20]; Abutilon theophrasti, 504 h, 31 g a.i./ha): 100%
3 | Cn1nc(-c2c(F)cc(Cl)c3c2CCC(c2ccccc2)O3)c(Cl)c1OC(F)F (centres unmarked) [Compound 1-42] | 60% | 100% | 30% | 50% | 98% | 100% | 100% | 70% | 60% | 100% | 100% | 0% | 10% | 100% | 100% | 80% | 100% | 40% | 10% | 50% | 
4 | CC1CCc2c(c(Cl)cc(F)c2-c2nn3c(c2Cl)CCCC3)O1 (centres unmarked) [Compound 1-85] |  |  |  |  |  |  |  |  |  |  | 60% | 0% | 10% | 60% | 80% | 20% | 95% | 10% | 0% | 30% | growth controlling degree, ECHCG ([11]; 31 g a.i./ha): 70%; growth controlling degree, XANST ([12]; 31 g a.i./ha): 100%; growth controlling degree, ZEAMX ([13]; 31 g a.i./ha): 50%; growth controlling degree, DIGSP ([14]; 31 g a.i./ha): 40%; growth controlling degree, SETVI ([15]; 31 g a.i./ha): 80%; growth controlling degree, SIDSP ([16]; 31 g a.i./ha): 95%; growth controlling degree, AMARE ([17]; 31 g a.i./ha): 70%; growth controlling degree, ORYSA ([18]; 31 g a.i./ha): 40%; growth controlling degree, GLXMA ([19]; 31 g a.i./ha): 50%; growth controlling degree, ABUTH ([20]; 31 g a.i./ha): 100%
